The values that follow come from PMC9772450, “Gel-forming antagonist provides a lasting effect on CGRP-induced vasodilation” (Frontiers in Pharmacology, 2022).

Data set [1] is described as follows: Visual (tube-tapping) assay of gel-forming capability and solubility. The data set is classed as physicochemical. Set-up: key to Gel-forming ability: Y: can form a liquid gel; N: lacks the ability to efficiently form a liquid gel. The conditions noted are these: visual inspection of 11% peptide solutions, tube-tapping, 20 min after mixing. As for the experimental part:
To evaluate the ability of peptides to form gels in situ, we initially determined this tendency qualitatively based on visual examinations of peptide solutions using a tube-tapping method. In addition, we quantitatively determined the viscosity of select peptide solutions using a viscometer (Rheosense Inc; http://www.rheosense.com/products/viscometers) ([Yan and Pochan, 2010]). In the visual assay, aliquots of peptides were dissolved in an aqueous solution (i.e., de-ionized water, saline, or 5% glucose solution). The peptide that dissolved instantly and stayed as a clear solution without obvious macroscopic change in viscosity at 20 min after mixing was considered soluble. If macroscopic particles of peptides remained in the solution at 20 min after mixing, the peptide was considered insoluble.

The target of data set [2] is T1, CLR/RAMP1 receptor (Homo sapiens, UniProt O60894+Q16602).
T1 construct: host or cells: CHO-K1 (cAMP Hunter cell line)
In words: HitHunter cAMP XS+ CALCRL-RAMP1 cAMP assay, antagonist mode. The data set is classed as cell-based. The settings on record: for Maximum response: antagonist mode, β-CGRP at EC80, 10-point curve, duplicate. Here is the method:
The assay of the antagonistic activity of analogs was conducted by the Eurofins Discoverx using the HitHunter cAMP XS + assay as described earlier ([Bradley and McLoughlin, 2009]; [Chang and Hsu, 2019]). The dose-dependent inhibitory effect of antagonists was studied in duplicate, at 10 different concentrations. Determination of the half-maximal inhibitory concentration (IC50) was performed using a 10-point dose-response curve. The starting concentration was 10 μM, and it was serially diluted 3-fold, in DMSO. […] Using the Hit Hunter® assay (CALCRL-RAMP1 cAMP assay in the antagonist mode; https://www.discoverx.com/products/cell-line/cho-k1-calcrl-ramp1-gs-cell-line-95-0164c2), the eight compounds in Table 1 were assayed side-by-side once, and the IC50 was derived based on the standard assay of duplicate samples of a ten-point curve. In this homogenous, non-imaging assay, the activation of CLR/RAMP1 signaling was evaluated using the Enzyme Fragment Complementation (EFC) technology with β-galactosidase (β-Gal) as the functional reporter. The enzyme was split into two complementary portions: an enzyme acceptor and an enzyme donor. The enzyme donor is fused to cAMP and it competes with cAMP generated by cells
For binding to a cAMP-specific antibody. Active β-Gal is formed by complementation of exogenous enzyme acceptor to any unbound enzyme donor-cAMP. The active enzyme then converted a chemiluminescent substrate to generate a signal. Briefly, cAMP Hunter cell lines with the select receptor were expanded from freezer stocks ([Bradley and McLoughlin, 2009]), and cells were seeded in a total volume of 20 μL into 384-well microplates and incubated at 37°C for the appropriate time. […] Intermediate dilution of samples was performed to generate 4X sample in the assay buffer. Before the assay, media was aspirated from cells and replaced with 10 μL 1:1 HBSS/Hepes:cAMP XS + Ab reagent, and 5 μL of 4X compound was added to the cells and incubated for 30 min. […] Vehicle concentration was 1%.
The chemiluminescent signal was read with a PerkinElmer chemiluminescent plate reader. The compound activity was analyzed using a CBIS data analysis suite (ChemInnovation, CA). The percentage inhibition was calculated using the following formula: % Inhibition = 100% x (1 - (mean RLU of test sample - mean RLU of vehicle control)/(mean RLU of EC80 control - mean RLU of vehicle control)). Data were normalized to the maximal and minimal response observed in the presence of EC80 agonist and vehicle.

Non-standard residues stand in square brackets, D forms with d. Residues, ends and D or L forms follow the SMILES beside them. *: point of attachment. Palmitoyl = CCCCCCCCCCCCCCCC(=O)*; Hyp = O=C(O)[C@@H]1C[C@@H](O)CN1; Cit = NC(=O)NCCC[C@H](N)C(=O)O; Orn = NCCC[C@H](N)C(=O)O; Dab = NCC[C@H](N)C(=O)O; Abu = CC[C@H](N)C(=O)O; Aib = CC(C)(N)C(=O)O; Ahx = NCCCCCC(=O)O; βAla = NCCC(=O)O

T1 sequence (Q16602 23-461): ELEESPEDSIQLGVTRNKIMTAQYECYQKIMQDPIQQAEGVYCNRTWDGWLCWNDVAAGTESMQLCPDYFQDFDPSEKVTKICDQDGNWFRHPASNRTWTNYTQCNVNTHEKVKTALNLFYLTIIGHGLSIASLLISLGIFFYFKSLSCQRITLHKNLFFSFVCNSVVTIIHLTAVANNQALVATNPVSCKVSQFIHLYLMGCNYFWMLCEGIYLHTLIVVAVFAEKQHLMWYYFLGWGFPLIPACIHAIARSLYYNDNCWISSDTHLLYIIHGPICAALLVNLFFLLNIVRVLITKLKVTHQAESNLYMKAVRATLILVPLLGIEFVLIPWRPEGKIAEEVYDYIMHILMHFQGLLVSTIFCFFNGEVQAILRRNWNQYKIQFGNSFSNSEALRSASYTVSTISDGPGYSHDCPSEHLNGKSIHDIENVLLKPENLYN
T1 sequence (O60894 27-148): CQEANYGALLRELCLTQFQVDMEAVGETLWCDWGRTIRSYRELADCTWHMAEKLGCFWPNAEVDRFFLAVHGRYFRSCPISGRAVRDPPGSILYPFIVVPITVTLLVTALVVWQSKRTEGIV

In the case of `CCCCCCCCCCCCCCCC(=O)N[C@@H](CCCCN)C(=O)N[C@H](C(=O)N[C@@H](CCC(N)=O)C(=O)N[C@@H](CCCCNC(=O)CCS)C(=O)N[C@@H](CC(C)C)C(=O)N[C@@H](CO)C(=O)N[C@@H](C)C(=O)N1CCC[C@H]1C(=O)N[C@H](C(=O)N[C@@H](CC(=O)O)C(=O)N1CCC[C@H]1C(=O)N[C@@H](CO)C(=O)N[C@@H](CO)C(=O)N1CCC[C@H]1C(=O)N[C@@H](Cc1c[nH]cn1)C(=O)N[C@@H](CO)C(=O)N[C@@H](Cc1ccc(O)cc1)C(N)=O)C(C)C)C(C)C` [ADE651O], in data set [1], the Gel-forming ability entry is listed as “Y”.
On the same count and under the same terms, the value for `CCCCCCCCCCCCCCCC(=O)N[C@@H](CCCCN)C(=O)N[C@H](C(=O)N[C@@H](CCC(N)=O)C(=O)N[C@@H](CCCCN)C(=O)NCCC(=O)N[C@@H](CO)C(=O)N[C@@H](C)C(=O)N1CCC[C@H]1C(=O)N[C@H](C(=O)N[C@@H](CC(=O)O)C(=O)N1CCC[C@H]1C(=O)N[C@@H](CO)C(=O)N[C@@H](CO)C(=O)N1CCC[C@H]1C(=O)N[C@@H](Cc1c[nH]cn1)C(=O)N[C@@H](CO)C(=O)N[C@@H](Cc1ccc(O)cc1)C(N)=O)C(C)C)C(C)C` [ADE651P] (Palmitoyl-KVQK[βAla]SAPVDPSSPHSY-NH2) was “N”.
For the molecule `CCCCCCCCCCCCCCCC(=O)N[C@@H](CCCCN)C(=O)N[C@H](C(=O)N[C@@H](CCC(N)=O)C(=O)N[C@@H](CCCCN)C(=O)N[C@@H](CCCNC(N)=O)C(=O)N[C@@H](CO)C(=O)N[C@@H](C)C(=O)N1CCC[C@H]1C(=O)N[C@H](C(=O)N[C@@H](CC(=O)O)C(=O)N1CCC[C@H]1C(=O)N[C@@H](CO)C(=O)N[C@@H](CO)C(=O)N1CCC[C@H]1C(=O)N[C@@H](Cc1c[nH]cn1)C(=O)N[C@@H](CO)C(=O)N[C@@H](Cc1ccc(O)cc1)C(N)=O)C(C)C)C(C)C` [ADE651D] (Palmitoyl-KVQK[Cit]SAPVDPSSPHSY-NH2), the Gel-forming ability result in data set [1] was “N”.
In the case of “Pal-KVQ-Lys (Pyr)-LSAPVDPSSPHSY-NH2 [ADE651N, ADE651 variant, second lysine substituted with Lys (Pyr)]”, the Gel-forming ability result in data set [1] was “Y”. Moreover, in data set [2], the Maximum response is 99.9 % of positive control. In addition, the “Antagonistic activity toward CGRP-mediated CLR/RAMP1 signaling compared to ADE651” value in data set [2] (result in words) is reported as “retained the potent antagonistic activity”.
With `CCCCCCCCCCCCCCCC(=O)N[C@@H](CCCCN)C(=O)N[C@H](C(=O)N[C@@H](CCC(N)=O)C(=O)N[C@@H](CCCCN)C(=O)NCCCCCC(=O)N[C@@H](CO)C(=O)N[C@@H](C)C(=O)N1CCC[C@H]1C(=O)N[C@H](C(=O)N[C@@H](CC(=O)O)C(=O)N1CCC[C@H]1C(=O)N[C@@H](CO)C(=O)N[C@@H](CO)C(=O)N1CCC[C@H]1C(=O)N[C@@H](Cc1c[nH]cn1)C(=O)N[C@@H](CO)C(=O)N[C@@H](Cc1ccc(O)cc1)C(N)=O)C(C)C)C(C)C` [ADE651B] (Palmitoyl-KVQK[Ahx]SAPVDPSSPHSY-NH2), the Gel-forming ability result in data set [1] is listed as “N”.
Take `CCCCCCCCCCCCCCCC(=O)N[C@@H](CCCCN)C(=O)N[C@H](C(=O)N[C@@H](CCC(N)=O)C(=O)N[C@@H](CCCCN)C(=O)N[C@@H](CCN)C(=O)N[C@@H](CO)C(=O)N[C@@H](C)C(=O)N1CCC[C@H]1C(=O)N[C@H](C(=O)N[C@@H](CC(=O)O)C(=O)N1CCC[C@H]1C(=O)N[C@@H](CO)C(=O)N[C@@H](CO)C(=O)N1CCC[C@H]1C(=O)N[C@@H](Cc1c[nH]cn1)C(=O)N[C@@H](CO)C(=O)N[C@@H](Cc1ccc(O)cc1)C(N)=O)C(C)C)C(C)C` [ADE651K] (Palmitoyl-KVQK[Dab]SAPVDPSSPHSY-NH2): the Gel-forming ability result in data set [1] is given as “N”.
With `CCCCCCCCCCCCCCCC(=O)N[C@@H](CCCCN)C(=O)N[C@H](C(=O)N[C@@H](CCC(N)=O)C(=O)N[C@@H](CCCCN)C(=O)N[C@@H](CC)C(=O)N[C@@H](CO)C(=O)N[C@@H](C)C(=O)N1CCC[C@H]1C(=O)N[C@H](C(=O)N[C@@H](CC(=O)O)C(=O)N1CCC[C@H]1C(=O)N[C@@H](CO)C(=O)N[C@@H](CO)C(=O)N1CCC[C@H]1C(=O)N[C@@H](Cc1c[nH]cn1)C(=O)N[C@@H](CO)C(=O)N[C@@H](Cc1ccc(O)cc1)C(N)=O)C(C)C)C(C)C` [ADE651I] (Palmitoyl-KVQK[Abu]SAPVDPSSPHSY-NH2), in data set [1], the Gel-forming ability entry is “N”.
In the case of `CCCCCCCCCCCCCCCC(=O)N[C@@H](CCCCN)C(=O)N[C@H](C(=O)N[C@@H](CCC(N)=O)C(=O)N[C@@H](CCCCN)C(=O)N1C[C@H](O)C[C@H]1C(=O)N[C@@H](CO)C(=O)N[C@@H](C)C(=O)N1CCC[C@H]1C(=O)N[C@H](C(=O)N[C@@H](CC(=O)O)C(=O)N1CCC[C@H]1C(=O)N[C@@H](CO)C(=O)N[C@@H](CO)C(=O)N1CCC[C@H]1C(=O)N[C@@H](Cc1c[nH]cn1)C(=O)N[C@@H](CO)C(=O)N[C@@H](Cc1ccc(O)cc1)C(N)=O)C(C)C)C(C)C` [ADE651E] (Palmitoyl-KVQK[Hyp]SAPVDPSSPHSY-NH2), in data set [1], the Gel-forming ability entry is reported as “N”.
Still for that read-out and setting: the value for `CCCCCCCCCCCCCCCC(=O)N[C@@H](CCCCN)C(=O)N[C@H](C(=O)N[C@@H](CCC(N)=O)C(=O)N[C@@H](CCCCN)C(=O)N[C@@H](CCCN)C(=O)N[C@@H](CO)C(=O)N[C@@H](C)C(=O)N1CCC[C@H]1C(=O)N[C@H](C(=O)N[C@@H](CC(=O)O)C(=O)N1CCC[C@H]1C(=O)N[C@@H](CO)C(=O)N[C@@H](CO)C(=O)N1CCC[C@H]1C(=O)N[C@@H](Cc1c[nH]cn1)C(=O)N[C@@H](CO)C(=O)N[C@@H](Cc1ccc(O)cc1)C(N)=O)C(C)C)C(C)C` [ADE651G] (Palmitoyl-KVQK[Orn]SAPVDPSSPHSY-NH2) was “N”; that for `CCCCCCCCCCCCCCCC(=O)N[C@@H](CCCCN)C(=O)N[C@H](C(=O)N[C@@H](CCC(N)=O)C(=O)N[C@@H](CCCCN)C(=O)N[C@@H](CCCC)C(=O)N[C@@H](CO)C(=O)N[C@@H](C)C(=O)N1CCC[C@H]1C(=O)N[C@H](C(=O)N[C@@H](CC(=O)O)C(=O)N1CCC[C@H]1C(=O)N[C@@H](CO)C(=O)N[C@@H](CO)C(=O)N1CCC[C@H]1C(=O)N[C@@H](Cc1c[nH]cn1)C(=O)N[C@@H](CO)C(=O)N[C@@H](Cc1ccc(O)cc1)C(N)=O)C(C)C)C(C)C` [ADE651F] was “N”.
In the case of `NCCCC[C@H](NC(=O)[C@@H](Cc1cc(Br)c(O)c(Br)c1)NC(=O)N1CCC(N2Cc3ccccc3NC2=O)CC1)C(=O)N1CCN(c2ccncc2)CC1` [BIBN4096, reference compound], the Maximum response in data set [2] is recorded as 100.5 % of positive control.
As to `CCCCCCCCCCCCCCCC(=O)N[C@@H](CCCCN)C(=O)N[C@H](C(=O)N[C@@H](CCC(N)=O)C(=O)N[C@@H](CCCCN)C(=O)NC(C)(C)C(=O)N[C@@H](CO)C(=O)N[C@@H](C)C(=O)N1CCC[C@H]1C(=O)N[C@H](C(=O)N[C@@H](CC(=O)O)C(=O)N1CCC[C@H]1C(=O)N[C@@H](CO)C(=O)N[C@@H](CO)C(=O)N1CCC[C@H]1C(=O)N[C@@H](Cc1c[nH]cn1)C(=O)N[C@@H](CO)C(=O)N[C@@H](Cc1ccc(O)cc1)C(N)=O)C(C)C)C(C)C` [ADE651A] (Palmitoyl-KVQK[Aib]SAPVDPSSPHSY-NH2), the Gel-forming ability result in data set [1] is “N”.
Turning to `CCCCCCCCCCCCCCCC(=O)N[C@@H](CCCCN)C(=O)N[C@H](C(=O)N[C@@H](CCC(N)=O)C(=O)N[C@@H](CCCCNC)C(=O)N[C@@H](CC(C)C)C(=O)N[C@@H](CO)C(=O)N[C@@H](C)C(=O)N1CCC[C@H]1C(=O)N[C@H](C(=O)N[C@@H](CC(=O)O)C(=O)N1CCC[C@H]1C(=O)N[C@@H](CO)C(=O)N[C@@H](CO)C(=O)N1CCC[C@H]1C(=O)N[C@@H](Cc1c[nH]cn1)C(=O)N[C@@H](CO)C(=O)N[C@@H](Cc1ccc(O)cc1)C(N)=O)C(C)C)C(C)C` [ADE651L], the Gel-forming ability entry in data set [1] is “Y”.
